Measurements reported in patent publication US8735387B2, “Oxazolopyrimidines as Edg-1 receptor agonists” (Sanofi, priority 2008, dated 2014).

target: T1, human Edg-1 receptor (Homo sapiens, UniProt P21453); assay: GTP-γ-S assay using human Edg-1 receptors (scintillation proximity assay, membrane preparation from CHO Flp-In cell line); format: biochemical; conditions: example compound at 10 μM; relative to 10 μM S1P; GTP-γ-S SPA, human Edg-1 membranes
T1 construct: expressed in transfected cells; membrane preparation
T1 sequence (P21453 whole entry): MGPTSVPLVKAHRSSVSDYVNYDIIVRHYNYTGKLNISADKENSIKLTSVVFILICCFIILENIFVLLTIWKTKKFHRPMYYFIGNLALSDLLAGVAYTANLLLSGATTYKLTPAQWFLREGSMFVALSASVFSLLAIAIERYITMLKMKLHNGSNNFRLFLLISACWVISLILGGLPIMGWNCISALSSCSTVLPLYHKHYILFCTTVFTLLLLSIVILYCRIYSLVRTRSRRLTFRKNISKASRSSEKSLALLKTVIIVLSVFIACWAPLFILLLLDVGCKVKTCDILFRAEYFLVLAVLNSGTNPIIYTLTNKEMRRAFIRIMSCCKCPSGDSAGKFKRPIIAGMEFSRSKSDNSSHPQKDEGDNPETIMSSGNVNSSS
Source text: Determination of the Pharmacological Activity A) GTP-γ-S Assay Using Human Edg-1 Receptors
In order to determine the Edg-1 receptor activation by the compounds of the invention, a GTP-γ-S (guanosine 5′-[γ-thio]triphosphate) assay for G-protein coupled receptor binding based on the scintillation proximity assay principle was used, employing a cell membrane preparation from a CHO Flp-In cell line which constitutively overexpresses the human Edg-1 receptor.
The Flp-In™ expression system (Invitrogen, cat. no. K6010-01) allows the generation of stable mammalian cell lines into which the gene of interest has been integrated through homologous recombination at a specific genomic location called Flp Recombination Target (FRT) site by means of a Flp recombinase encoded by the pOG44 expression plasmid. The integration of the pcDNA5/FRT expression construct into the Flp-In host cell line genome results in the transcription of the gene of interest. The stably transfected cells become hygromycin-resistant.
One day prior to transfection, 200 000 Flp-In-CHO cells were seeded in Ham F-12 medium (Invitrogen, cat. no. 31765) supplemented with 10% fetal calf serum (FCS; Perbio Science, cat. no. SH30068.03) in a 6-well plate and incubated at 37° C./5% CO2 overnight. Using the FuGENE® 6 transfection reagent (Roche, cat. no. 11988387001), cells were cotransfected with the Flp recombinase expression plasmid pOG44 and a modified plasmid additionally containing the edg-1 gene (accession no. NM_001400) termed as pcDNA5-FRT-TO_nFLAG_DEST-EDG-1 with a 9:1 ratio. To obtain the modified pcDNA5-FRT-TO_nFLAG_DEST plasmid, the Invitrogen plasmid pcDNA5/FRT/TO (Invitrogen, cat. no. V6520-20) was adapted to the Gateway® (Invitrogen) cloning system by inserting a Gateway cassette containing attR recombination sites flanking a ccdB gene and a chloramphenicol-resistance gene (Gateway conversion system, Invitrogen, cat. no. 11828-029). In addition a FLAG tag epitope was added before the 5′ att recombination site to allow recombinant expression of N-terminally FLAG-tagged proteins.
For the transfection of one well, 1.08 μg of pOG44 and 0.12 μg of pcDNA5-FRT-TO_nFLAG_DEST-EDG-1 were mixed to 100 μl of serum-free Ham F-12 medium containing 6 μl of FuGENE® 6 transfection reagent. After 20 min of incubation, the transfection reagent/DNA complex was distributed dropwise on the cells. The cells were incubated for 24 h at 37° C. Then the cells from 3 wells each were transferred to a T75 flask (Greiner Cellstar®, cat. no. 658175) containing Ham F-12 medium supplemented with 10% of FCS but without antibiotic and were incubated another 24 h. 48 h after transfection, the medium was replaced by selection medium (Ham F-12 supplemented with 10% of FCS and 300 μg/ml of hygromycin B (Invitrogen, cat. no. 10687-010)). The medium was exchanged every 2 to 3 days until a resistant population of cells had grown. […] After 2 weeks of selection, the cells were transferred into T175 flasks (Greiner Cellstar®, cat. no. 660175) and cultivated for batch production. Cells were harvested from the culture flasks by short treatment (2 to 5 min) with Accutase (PAA, cat. no. L11-007), resuspended in selection medium (see above) and centrifuged at 200×g for 5 min. Cells were resuspended in a mixture of 90% of FCS and 10% of dimethylsulfoxide and stored frozen in liquid nitrogen.
A membrane preparation was obtained by standard methods from the afore-described CHO Flp-In cell line constitutively overexpressing the human Edg-1 receptor. Briefly, the cryopreserved cells were taken in culture and grown until confluency in T175 cell culture flasks (Becton Dickinson, cat. no. 35 5001). […]

| Structure (SMILES) | % Activation (Edg-1 receptor activation in percent of the activation by 10 μM S1P) |
| --- | --- |
| CCCOc1nc(CN2CC(C)OC(C)C2)nc2oc(-c3cccc(F)c3)nc12 (stereo not drawn) [Example 47] | 85% |
| CCCOc1nc(Cc2ccc(Cl)cc2)nc2oc(-c3cc(C)c(OCC4CC4)c(C)c3)nc12 [Example 315] | 79% |
| CCCOc1nc(CN2CCN(S(C)(=O)=O)CC2)nc2oc(-c3cccc(F)c3)nc12 [Example 55] | 22% |
| CCCOc1nc(CN2CCCC(F)(F)C2)nc2oc(-c3cccc(F)c3)nc12 [Example 50] | 102% |
| C=C(C)COc1nc(Cc2ccc(Cl)cc2)nc2oc(-c3cccc(C)c3)nc12 [Example 119] | 80% |
| CCCOc1nc(CN2CCCOCC2)nc2oc(-c3ccc(F)c(F)c3)nc12 [Example 67] | 105% |
| CCCOc1nc(CN2CCCC2Cc2ccccc2)nc2oc(-c3cccc(F)c3)nc12 (stereo not drawn) [Example 143] | 73% |
| C=C(C)COc1nc(Cc2ccc(Cl)cc2)nc2oc(-c3cccnc3)nc12 [Example 124] | 94% |
| CCCOc1nc(CN2C(=O)CC(C)(C)CC2=O)nc2oc(-c3cccc(F)c3)nc12 [Example 142] | 75% |
| FCCOc1nc(CN2CCOCC2)nc2oc(-c3cccc(F)c3)nc12 [Example 32] | 42% |
| CCCOc1nc(CN2CCCC2)nc2oc(-c3cccc(F)c3)nc12 [Example 183] | 85% |
| CCCOc1nc(CN2CCCOCC2)nc2oc(-c3c(F)ccc(F)c3F)nc12 [Example 86] | 120% |
| CCOc1nc(Cc2ccc(Cl)cc2)nc2oc(-c3cc(C)c(OCC(O)CNC(C)=O)c(C)c3)nc12 (stereo not drawn) [Example 208] | 111% |
| CCCOc1nc(Cc2ccc(Cl)cc2)nc2oc(-c3cc(C)c(OCC(O)CNC(=O)c4ccco4)c(C)c3)nc12 (stereo not drawn) [Example 305] | 103% |
| CCCOc1nc(Cc2ccc(Cl)cc2)nc2oc(-c3cc(C)c(OCC(=O)N4CCC[C@H]4C(=O)OC(C)(C)C)c(C)c3)nc12 [Example 307] | 10% |
| CCOc1nc(Cc2ccc(Cl)cc2)nc2oc(-c3cc(C)c(OCC(=O)O)c(C)c3)nc12 [Example 253] | 79% |
| CCCOc1nc(CN2CCOCC2)nc2oc(-c3cc(Cl)ccc3OC)nc12 [Example 75] | 72% |
| CCCOc1nc(Cc2ccc(Cl)cc2)nc2oc(-c3cc(C)c(OCC(O)CNC(=O)CO)c(C)c3)nc12 (stereo not drawn) [Example 212] | 78% |
| CCOc1nc(Cc2ccc(Cl)cc2)nc2oc(-c3cc(C)c(OCC(O)CNC4CCC(C(F)(F)F)CC4)c(C)c3)nc12 (stereo not drawn) [Example 261] | 86% |
| CCCOc1nc(CN2CCOCC2)nc2oc(-c3ccnc(Cl)c3)nc12 [Example 71] | 116% |
| C#CCOc1nc(Cc2ccc(Cl)cc2)nc2oc(-c3cccnc3)nc12 [Example 123] | 47% |
| CCCOc1nc(Cc2ccc(Cl)cc2)nc2oc(-c3cc(C)c(OCCCNCCS(N)(=O)=O)c(C)c3)nc12 [Example 223] | 92% |

| Structure (SMILES) | % Activation (Edg-1 receptor activation in percent of the activation by 10 μM S1P) |
| --- | --- |
| CCCOc1nc(CN2CCOCC2)nc2oc(-c3cncc(F)c3)nc12 [Example 39] | 82% |
| CCCOc1nc(CN2CCOCC2)nc2oc(-c3cccc(F)c3)nc12 [Example 30] | 114% |
| CCCOc1nc(C(C)c2ccccc2)nc2oc(-c3cccc(F)c3)nc12 (stereo not drawn) [Example 14] | 97% |
| CCCOc1nc(Cc2ccc(Cl)cc2)nc2oc(-c3cc(C)c(OCC(=O)CC)c(C)c3)nc12 [Example 316] | 70% |
| CCCOc1nc(Cc2ccc(Cl)cc2)nc2oc(-c3cc(N)ccc3F)nc12 [Example 135] | 117% |
| CCCOc1nc(Cc2ccc(Cl)cc2)nc2oc(-c3ccc(N(C)C)c(C)c3)nc12 [Example 178] | 91% |
| Fc1cccc(-c2nc3c(OCC4CC4)nc(CC4CCOCC4)nc3o2)c1 [Example 161] | 96% |
| CCOc1nc(Cc2ccc(Cl)cc2)nc2oc(-c3cccc(C)c3)nc12 [Example 117] | 101% |
| CCOc1nc(Cc2ccc(Cl)cc2)nc2oc(-c3cc(C)c(OCC(O)CN4CCOCC4)c(C)c3)nc12 (stereo not drawn) [Example 236] | 102% |
| CCCOc1nc(Cc2ccc(Cl)cc2)nc2oc(-c3cc(C)c(OCC(=O)NCC4CC4)c(C)c3)nc12 [Example 254] | 86% |
| CCCOc1nc(Cn2ccnn2)nc2oc(-c3cccc(F)c3)nc12 [Example 44] | 78% |
| CCCOc1nc(Cn2cnc(-c3ccccc3)c2)nc2oc(-c3cccc(F)c3)nc12 [Example 59] | 30% |
| CCCOc1nc(CC2CCOCC2)nc2oc(-c3cccc(C)c3)nc12 [Example 159] | 73% |
| CCOc1nc(Cc2ccc(Cl)cc2)nc2oc(-c3cc(C)c(O)c(C)c3)nc12 [Example 191] | 98% |
| CCCOc1nc(CN2CCOCC2)nc2oc(-c3ccccc3)nc12 [Example 41] | 116% |
| CCOc1nc(Cc2ccc(Cl)cc2)nc2oc(-c3cc(C)c(OCC(=O)NCCCC(=O)O)c(C)c3)nc12 [Example 288] | 113% |
| CC(C)Oc1nc(CN2CCOCC2)nc2oc(-c3cccc(F)c3)nc12 [Example 205] | 115% |
| Cc1cccc(-c2nc3c(OCC4CC4)nc(C(C)c4ccccc4)nc3o2)c1 (stereo not drawn) [Example 16] | 106% |
| CCCOc1nc(CN2CCC(F)(F)CC2)nc2oc(-c3cc(OC)ccc3OC)nc12 [Example 81] | 83% |
| CCCOc1nc(CN2CCCCC2c2nccs2)nc2oc(-c3cccc(F)c3)nc12 (stereo not drawn) [Example 147] | 55% |
| CCCOc1nc(CN2CCCOCC2)nc2oc(-c3cc(F)c(F)cc3Cl)nc12 [Example 85] | 104% |

same assay, conditions: example compound at 10 μM; relative to 10 μM S1P; GTP-γ-S SPA, human Edg-1 membranes; read-out: % Activation (Edg-1 receptor activation in percent of the activation by 10 μM S1P)

| Structure (SMILES) | activation at 10 µM |
| --- | --- |
| CCCOc1nc(Cc2ccc(Cl)cc2)nc2oc(-c3cc(C)c(OCC(O)CN)c(C)c3)nc12 (stereo not drawn) [Example 20, 1-Amino-3-{4-[5-(4-chloro-benzyl)-7-propoxy-oxazolo[5,4-d]pyrimidin-2-yl]-2,6-dimethyl-phenoxy}-propan-2-ol] | 299% |
| CCCOc1nc(Cc2ccc(Cl)cc2)nc2oc(-c3cc(C)c(OCC(O)CO)c(C)c3)nc12 (stereo not drawn) [Example 18, 3-{4-[5-(4-Chloro-benzyl)-7-propoxy-oxazolo[5,4-d]pyrimidin-2-yl]-2,6-dimethyl-phenoxy}-propane-1,2-diol] | 128% |
